Measured values published in patent US9949479B2 (priority 2015, dated 2018).
Converted amounts (≈) assume the structure as drawn. “And” between values parts separate entries of the source, which are not always exact repeats. Equal entries are not always repeated. Where two headings read alike, the source gives them in different places.

Experiments:
[1] = design: species or system wheat; conditions: in vivo
[2] = type: in vivo, wheat
[3] = tested on: DON toxin biosynthesis of carbendazim-resistant fusarium asiaticum; experiment: microbe, parasite or virus in culture; type: cell-based; conditions: for inhibition at 1 µg/mL / inhibition at 10 µg/mL / inhibition at 100 µg/mL / inhibition at 1000 µg/mL / inhibition at 10000 µg/mL: Fusarium asiaticum, read-out: DON Biosynthesis Inhibition Rate
leaf blight [4] = type: in vivo
leaf blight [5] = type: in vivo; conditions: dose as in E145
powdery mildew [6] = type: in vivo
rust [7] = type: in vivo; conditions: dose as in E162
rust [8] = type: in vivo; conditions: dose as in E145
powdery mildew [9] = type: in vivo; conditions: dose as in E162
Tri5 gene = type: cell-based, Fusarium asiaticum
powdery mildew [10] = type: in vivo; conditions: dose as in E145
leaf blight [11] = type: in vivo; conditions: dose as in E162
Fusarium graminearum = experiment: microbe, parasite or virus in culture; type: cell-based
[12] = type: in vivo, barley; conditions: dose as in E154
wheat scab [13] = type: in vivo, Fusarium spp.
[14] = type: in vivo, wheat; conditions: vs control; dose as in E145
wheat scab [15] = type: in vivo, Fusarium spp.; remark: listed apart in the source
[16] = tested on: DON toxin synthesis capability of thalli; design: species or system Fusarium spp.; conditions: in vivo
[17] = Serial 5: preparation 75 g/mu, jinggangmycin 15 g ai./mu alone
[18] = Serial 6: preparation 60 g/mu, jinggangmycin 12 g ai./mu alone
[19] = Serial 7: preparation 45 g/mu, jinggangmycin 9 g ai./mu alone
[20] = Serial 8: preparation 30 g/mu, jinggangmycin 6 g ai./mu alone
[21] = Fusarium graminearum, read-out: Growth Inhibition Rate F.g
[22] = Serial 9: preparation 37.5 g/mu, metconazole 7.5 g ai./mu alone
[23] = Serial 10: preparation 30 g/mu, metconazole 6 g ai./mu alone
[24] = Serial 11: preparation 22.5 g/mu, metconazole 4.5 g ai./mu alone
[25] = Serial 12: preparation 15 g/mu, metconazole 3 g ai./mu alone

OCC1=C[C@H](NC2C[C@H](CO)[C@@H](OC3O[C@H](CO)[C@@H](O)[C@H](O)[C@H]3O)[C@H](O)[C@H]2O)[C@H](O)[C@@H](O)[C@@H]1O (stereo partly drawn) [Jinggangmycin A, jinggangmycin A]
Thousand Kernel Weight [1]: 39.2 g and 41.1 g and 39.8 g and 39.5 g
Grain Toxin Content mg of DON/kg of grain [2, 17]: 2.86 mg of DON/kg of grain
Toxin Reduction Percentage % [2, 17]: 36.7%
Grain Toxin Content mg of DON/kg of grain [2, 18]: 3.82 mg of DON/kg of grain
Toxin Reduction Percentage % [2, 18]: 15.5%
Grain Toxin Content mg of DON/kg of grain [2, 19]: 4.02 mg of DON/kg of grain
Toxin Reduction Percentage % [2, 19]: 11.1%
Grain Toxin Content mg of DON/kg of grain [2, 20]: 4.14 mg of DON/kg of grain
Toxin Reduction Percentage % [2, 20]: 8.4%
inhibition at 1 µg/mL ([3]; 168 h): 28.6%
inhibition at 10 µg/mL ([3]; 168 h): 35.5%
inhibition at 100 µg/mL ([3]; 168 h): 45.2%
inhibition at 1000 µg/mL ([3]; 168 h): 65.5%
inhibition at 10000 µg/mL ([3]; 168 h): 75.9%
inhibition at 1 µg/mL ([3]; 336 h): 1.7%
inhibition at 10 µg/mL ([3]; 336 h): 7.87%
inhibition at 100 µg/mL ([3]; 336 h): 29.9%
inhibition at 1000 µg/mL ([3]; 336 h): 57%
inhibition at 10000 µg/mL ([3]; 336 h): 75.4%
Disease Index Prevention Effect % Leaf Blight (leaf blight [4]; Serial 5: preparation 100 g/mu, jinggangmycin 20, metconazole 0 g ai./mu): 7.8%
Disease Index Prevention Effect % Leaf Blight (leaf blight [5]): 8.3% and 7.8% and 0%
Disease Index Prevention Effect % Powdery Mildew (powdery mildew [6]; Serial 5: preparation 100, jinggangmycin 20, metconazole 0 g ai./mu): 10.6%
Disease Index Prevention Effect % Rust (rust [7]): 5.1% and 3.6% and 0%
Disease Index Prevention Effect % Rust (rust [8]): 4.9% and 3.8% and 0%
Disease Index Prevention Effect % Powdery Mildew (powdery mildew [9]): 7.3% and 4.4% and 4.5% and 0%
Rate of Inhibition on Relative Expression Level of Tri5 Gene (Tri5 gene): 66% and 84% and 87% and 90% and 59%
Disease Index Prevention Effect % Powdery Mildew (powdery mildew [10]): 7.5% and 4.5% and 0%
Disease Index Prevention Effect % Leaf Blight (leaf blight [11]): 8.5% and 7.9% and 0%
inhibition at 50 µg/mL (Fusarium graminearum; [21]): 6.5%
inhibition at 50 µg/mL (Fusarium graminearum; Fusarium graminearum, read-out: inhibitory effect on the growth of the two types of fusaria): 6.5 to 7.8%
Average Fungal Colony Diameter F.g (Fusarium graminearum; Jinggangmycin A 0.1 μg/mL, sensitive strains): 76.3 mm
Average Fungal Colony Diameter F.g (Fusarium graminearum; Jinggangmycin A 1.0 μg/mL, sensitive strains): 76.2 mm
Average Fungal Colony Diameter F.g (Fusarium graminearum; Jinggangmycin A 10.0 μg/mL, sensitive strains): 75.4 mm
Average Fungal Colony Diameter F.g (Fusarium graminearum; Jinggangmycin A 50.0 μg/mL, sensitive strains): 70.3 mm
Grain Toxin Content [12]: 6.67 mg of DON/Kg of grain and 5.28 mg of DON/Kg of grain and 4.62 mg of DON/Kg of grain and 3.86 mg of DON/Kg of grain and 3.49 mg of DON/Kg of grain

CC1(C)CCC(Cc2ccc(Cl)cc2)C1(O)Cn1cncn1 (stereo not drawn) [Metconazole]
Thousand Kernel Weight [1]: 42.8 g and 41.8 g and 42.0 g and 39.2 g
Grain Toxin Content mg of DON/kg of grain [2, 22]: 2.01 mg of DON/kg of grain
Toxin Reduction Percentage % [2, 22]: 55.5%
Grain Toxin Content mg of DON/kg of grain [2, 23]: 2.17 mg of DON/kg of grain
Toxin Reduction Percentage % [2, 23]: 52.0%
Grain Toxin Content mg of DON/kg of grain [2, 24]: 2.06 mg of DON/kg of grain
Toxin Reduction Percentage % [2, 24]: 54.4%
Grain Toxin Content mg of DON/kg of grain [2, 25]: 3.12 mg of DON/kg of grain
Toxin Reduction Percentage % [2, 25]: 31.0%
DON Biosynthesis Inhibition Rate [3]: 0.66% and −0.34%
Toxin Production Capability [3]: 87.42 μgDON/g by dry weight of hyphae and 52.50 μgDON/g by dry weight of hyphae
Disease Index Prevention Effect % Leaf Blight (leaf blight [4]; Serial 6: preparation 100 g/mu, jinggangmycin 0, metconazole 20 g ai./mu): 84.6%
Theoretical Prevention Effect on Head Blight % (wheat scab [13]; Abbott method, dose as in E162): 66.7% and 61.8% and 40.9% and 33.6%
Disease Index Prevention Effect % Head Blight (wheat scab [13]; tank mixture sprayed twice, g ai. agent/mu, Jinggangmycin+Metconazole by row: r11 3+15, r12 5+10, r13 5+5, r14 10+5, r15 50+3, r16 100+3, Jinggangmycin alone r17 100, r18 50, r19 10, r20 5, r21 3, Metconazole alone r22 15, r23 10, r24 5, r25 3, r26 Polyketone 57): 66.7% and 61.8% and 50.9% and 33.6%
Disease Index Prevention Effect % Powdery Mildew (powdery mildew [6]; Serial 6: preparation 100, jinggangmycin 0, metconazole 20 g ai./mu): 78.2%
DON Reduction Percentage (%) [14]: 88.4% and 79.9% and 71.4% and 66.6%
Disease Index Prevention Effect % Rust (rust [8]): 83.8% and 78.4% and 66.7% and 41.9%
Theoretical Prevention Effect of Mixed Agent on Head Blight (wheat scab [15]; Abbott method, dose as in E145): 65.8 and 61.3 and 48.4 and 39.6
Disease Index Prevention Effect % Head Blight (wheat scab [15]; sprayed twice, g ai. agent/mu, Jinggangmycin+Metconazole by row: r16 1+15, r17 3+10, r18 5+5, r19 5+10, r20 5+15, r21 10+3, r22 10+10, r23 10+15, r24 50+3, r25 50+10, r26 50+15, r27 100+5, r28 100+10, Jinggangmycin alone r29 100, r30 50, r31 10, r32 5, r33 3, r34 1, Metconazole alone r35 15, r36 10, r37 5, r38 3, r39 Carbendazim 40): 65.8% and 61.3% and 48.4% and 39.6%
Disease Index Prevention Effect % Powdery Mildew (powdery mildew [10]): 78.7% and 74.3% and 70.2% and 48.6%
ED50 (Fusarium graminearum; F.g sensitive strains): 0.117 µg/mL (≈ 0.366 µM)
inhibition at 0.0625 µg/mL (Fusarium graminearum; [21]): 30.7%
inhibition at 0.125 µg/mL (Fusarium graminearum; [21]): 58.5%
inhibition at 0.25 µg/mL (Fusarium graminearum; [21]): 75.7%
inhibition at 0.5 µg/mL (Fusarium graminearum; [21]): 89.1%
inhibition at 1 µg/mL (Fusarium graminearum; [21]): 96%
inhibition at 0.1 µg/mL (Fusarium graminearum; Fusarium graminearum, read-out: inhibition rate on the hyphal growth of the head blight fungi): ~50%
Average Fungal Colony Diameter F.g (Fusarium graminearum; Metconazole 0.0625 μg/mL, sensitive strains): 52.1 mm
Average Fungal Colony Diameter F.g (Fusarium graminearum; Metconazole 0.125 μg/mL, sensitive strains): 31.2 mm
Average Fungal Colony Diameter F.g (Fusarium graminearum; Metconazole 0.25 μg/mL, sensitive strains): 18.3 mm
Average Fungal Colony Diameter F.g (Fusarium graminearum; Metconazole 0.5 μg/mL, sensitive strains): 8.2 mm
Average Fungal Colony Diameter F.g (Fusarium graminearum; Metconazole 1.0 μg/mL, sensitive strains): 3.0 mm
activity of metconazole relative to carbendazim (ED50) (Fusarium graminearum; sensitive strains): about four times
activity of metconazole relative to phenamacril (ED50) (Fusarium graminearum; sensitive strains): about 1.5 times
DON Synthesis Capability [16]: 20.16 and 19.80 and 19.96 and 19.54 and 19.20 and 19.38
Grain Toxin Content [12]: 3.86 mg of DON/Kg of grain and 3.70 mg of DON/Kg of grain and 3.09 mg of DON/Kg of grain and 3.26 mg of DON/Kg of grain
Toxin Reduction Percentage % ([12]; vs control): 54.7% and 56.6% and 63.8% and 61.8%
